The source of these data is ChEMBL document CHEMBL4346743, “Design and synthesis of biotinylated Hexylselen as a probe to identify KGA allosteric inhibitors by a convenient biomolecular interaction assay” (Bioorg Med Chem Lett, 2019).

Experiment [1] concerns the target T1, Glutaminase kidney isoform, mitochondrial (Homo sapiens, UniProt O94925).
T1 sequence (O94925 whole entry): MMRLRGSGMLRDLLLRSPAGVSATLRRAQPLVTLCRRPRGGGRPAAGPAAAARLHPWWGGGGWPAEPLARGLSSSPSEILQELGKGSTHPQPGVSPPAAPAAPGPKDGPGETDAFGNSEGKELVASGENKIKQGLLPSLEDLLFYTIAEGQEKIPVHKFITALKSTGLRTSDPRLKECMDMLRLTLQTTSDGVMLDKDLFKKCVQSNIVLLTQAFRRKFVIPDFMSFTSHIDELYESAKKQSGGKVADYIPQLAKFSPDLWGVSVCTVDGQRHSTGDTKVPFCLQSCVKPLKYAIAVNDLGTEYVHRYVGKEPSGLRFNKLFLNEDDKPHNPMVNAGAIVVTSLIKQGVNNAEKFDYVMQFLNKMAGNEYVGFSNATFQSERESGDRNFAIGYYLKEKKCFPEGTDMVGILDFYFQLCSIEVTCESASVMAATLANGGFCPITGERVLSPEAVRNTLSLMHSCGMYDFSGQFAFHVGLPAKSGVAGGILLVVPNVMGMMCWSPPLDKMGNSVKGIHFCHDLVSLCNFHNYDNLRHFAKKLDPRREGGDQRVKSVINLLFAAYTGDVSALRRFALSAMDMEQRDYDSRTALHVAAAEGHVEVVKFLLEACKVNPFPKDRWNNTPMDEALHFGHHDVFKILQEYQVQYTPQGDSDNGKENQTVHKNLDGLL
In words: Allosteric inhibition of human KGA assessed as reduction in glutamate formation using glutamine as substrate pretreated with enzyme for 15 mins followed by substrate addition and measured after 3 hrs by KGA/GDH coupled assay.

Experiment [2] concerns the target T2, Glutaminase kidney isoform, mitochondrial (Homo sapiens) (UniProt O94925).
T2 sequence (whole entry): T1 sequence (O94925 whole entry)
In words: Competitive binding affinity to human KGA in presence of BPTES by biolayer interferometry. Background: Biolayer interferometry detects binding as a change in optical thickness at a sensor tip.

Experiment [3] addresses T1, Glutaminase kidney isoform, mitochondrial. The experiment in a line: Binding affinity to human KGA assessed as dissociation constant.
Experiment [4] has as its target T2, Glutaminase kidney isoform, mitochondrial (Homo sapiens). In words: Competitive binding affinity to human KGA after 1 hr in presence of ebselen by biolayer interferometry.
Experiment [5] has the same target. In words: Binding affinity to human KGA assessed as dissociation rate constant at 33 uM.
The target is the same in experiment [6]. The experiment in a line: Binding affinity to human KGA assessed as association rate constant at 33 uM.

pIC50, pKd: −log10 of the molar value. Active and inactive are the calls of the source. The calls are words filed in the database; no cut-off is given here.

As for `COc1ccc2[se]n(CCCCCCn3[se]c4ccc(OCCCCC[C@@H]5SC[C@@H]6NC(=O)N[C@@H]65)cc4c3=O)c(=O)c2c1`, in experiment [1], the pIC50 is 7.14. Moreover, the outcome in experiment [2] was Active. The pKd in experiment [3] is 6.85. For the same compound, the outcome in experiment [4] was inactive. The Kdiss in experiment [5] was found to be 2 ×10⁻³ /s. For the same compound, the Ka in experiment [6] was determined as 1.4 ×10⁴ /Ms.

For orientation: pIC50 means the IC50 on a negative log10 scale, so that one unit is a factor of ten. One may read the pKd as the Kd on a negative log10 scale, so that one unit is a factor of ten.
